Measurements: patent publication US20060140994A1, “Application of an antimicrobial agent on an elastomeric article” (priority 2004, published 2006)

System: Staphylococcus aureus (ATCC #27660)
Assay: Rapid Germicidal Time Kill, ASTM protocol 04-123409-106
Assay type: cell-based
Conditions: for log reduction of organisms: nitrile gloves, versus applied organisms estimated from latex control
Experimental: To test the antimicrobial efficacy of a polyhexamethylene biguanide, such as available commercially under the trademark Cosmosil® CQ from Arch Chemicals, Inc., Norwalk, Conn., we treated nitrile examination gloves according to ASTM protocol 04-123409-106 “Rapid Germicidal Time Kill.” Briefly, about 50 μL of an overnight culture of Staphylococcus aureus (ATCC #27660, 5×10^8CFU/mL) was applied to the glove material. After a total contact time of about 6 minutes the glove fabric was placed into a neutralizing buffer. Surviving organisms were extracted and diluted in Letheen broth. Aliquots were spread plated on Tryptic Soy Agar plates. Plates were incubated for 48 hours at 35° C. Following incubation the surviving organisms were counted and the colony forming units (CFU) were recorded. The reduction (log10) in surviving organisms from test material versus control fabric was calculated:
Log10 CFU/swatch Control−Log10 CFU/swatch Test Article=Log10 Reduction.

polyhexamethylene biguanide
log reduction of Staphylococcus aureus (microtextured nitrile glove, machine applied at 0.03 g/glove): greater than four
log reduction of organisms (hand sprayed with no heat): greater than one
log reduction of organisms (machine sprayed under heated conditions): greater than 5 log
